Laboratory results from ChEMBL document CHEMBL1132983, “Doubly homologated dihalovinyl and acetylene analogues of adenosine: synthesis, interaction with S-adenosyl-L-homocysteine hydrolase, and antiviral and cytostatic effects” (J Med Chem, 2000).

Key:
[1] = molecular target: Adenosylhomocysteinase (Homo sapiens) (UniProt P23526); assay: Compound was evaluated for inhibition of human placental AdoHcy hydrolase at a concentration of 50 uM
[2] = molecular target: Adenosylhomocysteinase (Homo sapiens) (UniProt P23526); assay: Compound was evaluated for inhibition of human placental AdoHcy hydrolase at a concentration of 1.0 uM
[3] = molecular target: Adenosylhomocysteinase (Homo sapiens) (UniProt P23526); assay: Compound was evaluated for inhibition of human placental AdoHcy hydrolase at a concentration of 0.1 uM
[4] = molecular target: Adenosylhomocysteinase (Homo sapiens) (UniProt P23526); assay: Compound was evaluated for inhibition of human placental AdoHcy hydrolase at a concentration of 100 uM
[5] = molecular target: Adenosylhomocysteinase (Homo sapiens) (UniProt P23526); assay: Compound was evaluated for inhibition of human placental AdoHcy hydrolase at a concentration of 10 uM

Sequence of Adenosylhomocysteinase (Homo sapiens) (P23526 2-432 limits assumed): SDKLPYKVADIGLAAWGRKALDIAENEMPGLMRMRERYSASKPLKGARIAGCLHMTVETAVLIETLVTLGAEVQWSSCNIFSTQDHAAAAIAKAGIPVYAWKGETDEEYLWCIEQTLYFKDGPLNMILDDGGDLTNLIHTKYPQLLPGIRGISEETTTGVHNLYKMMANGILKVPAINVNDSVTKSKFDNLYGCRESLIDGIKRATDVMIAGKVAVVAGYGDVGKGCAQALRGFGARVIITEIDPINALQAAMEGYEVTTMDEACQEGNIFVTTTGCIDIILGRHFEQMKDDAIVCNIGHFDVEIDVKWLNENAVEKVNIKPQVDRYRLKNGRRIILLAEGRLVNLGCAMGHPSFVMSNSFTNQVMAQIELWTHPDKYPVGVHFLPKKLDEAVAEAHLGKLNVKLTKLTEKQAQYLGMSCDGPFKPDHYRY

SMILES	Enzyme activity [1] [%]	Enzyme activity [2] [%]	Enzyme activity [3] [%]	Enzyme activity [4] [%]	Enzyme activity [5] [%]
Nc1ncnc2c1ncn2C1O[C@H](CC=C(Br)Br)[C@@H](O)[C@H]1O (stereo not given in full)	5	48.5	87.5	4	17.1
Nc1ncnc2c1ncn2C1O[C@H](C/C=C(/F)Br)[C@@H](O)[C@H]1O (stereo not given in full)	9.7	87.4	90.6	5.8	37.4
C#CC[C@H]1OC(n2cnc3c(N)ncnc32)[C@H](O)[C@@H]1O (stereo not given in full)	14.3	73.4	98.3	8	38.9
